Experiments:
[1] = test system: Stress Ulcer; assay: Inhibition on Stress Ulcer; type: in vivo, Sprague-Dawley rats; settings: 32 mg/kg, oral, just before immobilization in water bath at 22° C.; seven hours; mean ulcer area vs control
Procedure: (B) Inhibition on Stress Ulcer
Five Sprague-Dawley rats weighing about 200 g were used per group. Each animal was immobilized in a small cage and put in a water bath allowing to respire. The temperature of the water bath kept at 22° C. The test compound was administered orally just before the immobilization. Seven hours later, the animals were sacrificed and their stomachs were removed. The stomach was then fixed with 2% formalin. The area of ulcers was measured for each animal. The mean area (mm^2) in the medicated animals was compared with that in the control animals.

[2] = test system: ethanol ulcer; assay: Inhibition on ethanol ulcer; type: in vivo, Sprague-Dawley rats; settings: 32 mg/kg, oral, 30 minutes before absolute ethanol (5 ml/kg); rats sacrificed one hour later; mean ulcer area vs control
Procedure: (A) Inhibition on ethanol ulcer
Five male Sprague-Dawley rats, aged 7 weeks and weighing about 200 g, were used per group for the study on ethanol ulcer after the fast for 24 hours.
Test compound was suspended in 0.1% methylcellulose aqueous solution, and the suspension (5 ml/kg) was orally given to each rat.
The control group was given a vehicle, i.e. 0.1% methylcellulose aqueous solution (5 ml/kg), alone in the same way.
Absolute ethanol (5 ml/kg) was orally administered 30 minutes after dosing with test compound, and one hour later, the rats were sacrificed and their stomachs were removed. The area of ulcers of each rat was measured. The mean area […] in the medicated group was compared with that in the control group.

Row | Compound | Inhibition % (stress ulcer area) [1] [%] | Inhibition % (ethanol ulcer area) [2] [%]
1 | C#CCc1c(C)nc2c(OCc3c(C)cccc3NC(N)=O)cccn12 [Test Compound (3), 2-methyl-8-(2-methyl-6-ureidobenzyloxy)-3-(2propynyl)imidazo[1,2-a]pyridin] | 100 | 
2 | C#CCc1c(C)nc2c(OCc3c(C)cccc3NC(=O)OC)cccn12 [Test Compound (1), 8-(2-Methoxycarbonylamino-6-methylbenzyloxy)-2-methyl-3-(2-propynyl)imidazo[1,2-a]pyridine] | 100 | 93.2
3 | C#CCc1c(C)nc2c(OCc3c(C)cccc3NC(C)=O)cccn12 [Test Compound (2), 8-(2-Acetamido-6-methylbenzyloxy)-2-methyl-3(2-propynyl)imidazo[1,2-a]pyridine] | 100 | 
4 | C#CCc1c(C)nc2c(OCc3c(C)cccc3NC(N)=S)cccn12 [Test Compound (4), 2-Methyl-8-(2-methyl-6-thioureidobenzyloxy)-3(2-propynyl)imidazo[1,2-a]pyridine] | 100 | 

Reference: patent US4831041A, “Imidazopyridine compounds and processes for preparation thereof” (Fujisawa Pharmaceutical Co., Ltd., priority 1986, dated 1989)
